The record followed here is ChEMBL document CHEMBL2074117, “Influence of redox-active compounds and PXR-activators on human MRP1 and MRP2 gene expression” (Toxicology, 2002).

The target in data set [1] is T1, ATP-binding cassette sub-family C member 2 (Homo sapiens, UniProt Q92887). The data set is described as follows: TP_TRANSPORTER: RT-PCR in HepG2 cells. The class given is functional, cell-based.
In data set [2] the target is T1, ATP-binding cassette sub-family C member 2. In words: TP_TRANSPORTER: Western blot, HepG2 cells. It is filed as functional, cell-based. (In western blotting, separated proteins are transferred to a membrane and probed.)

T1 sequence (Q92887 whole entry): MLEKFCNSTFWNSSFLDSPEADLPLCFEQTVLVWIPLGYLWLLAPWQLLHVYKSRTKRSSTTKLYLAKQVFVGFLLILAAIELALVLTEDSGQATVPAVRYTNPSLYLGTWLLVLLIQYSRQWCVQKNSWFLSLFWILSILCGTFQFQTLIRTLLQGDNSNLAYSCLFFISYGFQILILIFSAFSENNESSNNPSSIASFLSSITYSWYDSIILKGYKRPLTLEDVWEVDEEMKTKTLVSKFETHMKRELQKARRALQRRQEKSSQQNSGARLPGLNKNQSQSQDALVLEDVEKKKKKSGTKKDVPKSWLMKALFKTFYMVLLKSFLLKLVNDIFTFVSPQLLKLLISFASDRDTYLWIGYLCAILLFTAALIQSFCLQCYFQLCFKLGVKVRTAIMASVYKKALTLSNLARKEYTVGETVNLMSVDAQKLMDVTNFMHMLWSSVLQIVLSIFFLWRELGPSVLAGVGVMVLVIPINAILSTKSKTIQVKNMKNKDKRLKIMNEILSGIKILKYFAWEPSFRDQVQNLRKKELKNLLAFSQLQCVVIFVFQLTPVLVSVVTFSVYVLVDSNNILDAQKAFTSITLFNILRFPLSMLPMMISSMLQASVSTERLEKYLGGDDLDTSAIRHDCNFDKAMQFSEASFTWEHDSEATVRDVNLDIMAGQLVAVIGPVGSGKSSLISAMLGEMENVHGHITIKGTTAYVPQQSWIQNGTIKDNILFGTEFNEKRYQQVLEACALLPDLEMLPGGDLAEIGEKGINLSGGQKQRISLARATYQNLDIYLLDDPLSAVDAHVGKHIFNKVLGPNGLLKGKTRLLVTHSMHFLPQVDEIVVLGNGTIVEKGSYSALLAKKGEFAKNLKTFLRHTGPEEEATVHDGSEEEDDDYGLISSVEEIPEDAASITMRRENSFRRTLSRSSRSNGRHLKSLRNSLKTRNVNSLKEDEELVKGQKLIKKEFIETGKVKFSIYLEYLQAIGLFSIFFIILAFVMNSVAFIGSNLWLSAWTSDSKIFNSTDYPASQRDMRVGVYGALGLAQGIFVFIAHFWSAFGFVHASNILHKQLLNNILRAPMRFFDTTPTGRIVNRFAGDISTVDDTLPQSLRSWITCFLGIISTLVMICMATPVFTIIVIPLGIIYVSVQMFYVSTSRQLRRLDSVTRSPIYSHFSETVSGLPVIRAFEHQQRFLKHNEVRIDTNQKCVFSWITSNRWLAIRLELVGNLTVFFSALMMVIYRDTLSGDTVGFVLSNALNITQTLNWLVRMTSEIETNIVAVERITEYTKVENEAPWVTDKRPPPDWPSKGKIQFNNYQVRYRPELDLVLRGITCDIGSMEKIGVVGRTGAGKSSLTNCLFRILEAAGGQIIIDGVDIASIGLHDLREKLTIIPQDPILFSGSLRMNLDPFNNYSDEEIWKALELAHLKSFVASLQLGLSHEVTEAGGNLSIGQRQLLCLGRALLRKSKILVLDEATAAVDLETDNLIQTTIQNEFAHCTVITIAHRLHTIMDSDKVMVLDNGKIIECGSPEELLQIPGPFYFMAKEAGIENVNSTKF

As to `CC(C)(C)c1cc(O)ccc1O` [E319], the Activity entry in data set [1] and in data set [2] was “inducer [+]” throughout.

On to `CO[C@H]1/C=C/O[C@@]2(C)Oc3c(C)c(O)c4c(O)c(c(/C=N/N5CCN(C)CC5)c(O)c4c3C2=O)NC(=O)/C(C)=C\C=C\[C@H](C)[C@H](O)[C@@H](C)[C@@H](O)[C@@H](C)[C@H](OC(C)=O)[C@@H]1C` [RIFAMPIN], for which the Activity entry in data set [1] and in data set [2] was “inducer [+]” in each case.

Regarding `O[As](O)O` [TRIHYDROXYARSENITE(III)], the Activity entry in data set [1] and in data set [2] was “inducer [+]” each time.

In the case of `Clc1ccccc1C(c1ccccc1)(c1ccccc1)n1ccnc1` [CLOTRIMAZOLE], the Activity entry in data set [1] and in data set [2] was “inducer [+]” each time.
